pIC50: −log10 of the molar value. In brackets after ≈: the same amount, converted by molar mass. Activity calls are given as the source filed them. The rule behind the calls is not given here.
Tests used:
SK-MEL-5 = experiment: Cytotoxicity against human SK-MEL-5 cells after 48 hrs by sulforhodamine B assay; type: functional
Enterococcus faecalis = experiment: Antimicrobial activity against Enterococcus faecalis ATCC 29212 assessed clear zone in inhibition per disk by CLSI disk diffusion susceptibility assay; type: functional
A498 = experiment: Cytotoxicity against human A498 cells after 48 hrs by sulforhodamine B assay; type: functional
OVCAR-3 = experiment: Cytotoxicity against human OVCAR-3 cells after 48 hrs by sulforhodamine B assay; type: functional
BXPC-3 = experiment: Cytotoxicity against human BxPC3 cells after 48 hrs by sulforhodamine B assay; type: functional
[1] = Inhibition of tubulin polymerization
DU-145 = experiment: Cytotoxicity against human DU145 cells after 48 hrs by sulforhodamine B assay; type: functional
KM-20L2 = experiment: Cytotoxicity against human KM20L2 cells after 48 hrs by sulforhodamine B assay; type: functional
Neisseria gonorrhoeae = experiment: Antimicrobial activity against Neisseria gonorrhoeae ATCC 49226 assessed clear zone of inhibition measured per disk by CLSI disk diffusion susceptibility assay; type: functional
Escherichia coli = experiment: Antimicrobial activity against Escherichia coli ATCC 25922 assessed clear zone in inhibition per disk by CLSI disk diffusion susceptibility assay; type: functional
Cryptococcus neoformans = experiment: Antimicrobial activity against Cryptococcus neoformans ATCC 90112 assessed clear zone in inhibition per disk by CLSI disk diffusion susceptibility assay; type: functional
Micrococcus luteus = experiment: Antimicrobial activity against Micrococcus luteus Presque Isle 456 assessed clear zone in inhibition per disk by CLSI disk diffusion susceptibility assay; type: functional
Streptococcus pneumoniae = experiment: Antimicrobial activity against Streptococcus pneumoniae ATCC 6303 assessed clear zone in inhibition per disk by CLSI disk diffusion susceptibility assay; type: functional
MCF7 = experiment: Cytotoxicity against human MCF7 cells after 48 hrs by sulforhodamine B assay; type: functional
P388 = experiment: Cytotoxicity against mouse P388 cells after 48 hrs by sulforhodamine B assay; type: functional; conditions: P388, 48 h, read-out: ED50 (the source's name)
NCI-H460 = experiment: Cytotoxicity against human NCI-H460 cells after 48 hrs by sulforhodamine B assay; type: functional
SF-295 = experiment: Cytotoxicity against human SF295 cells after 48 hrs by sulforhodamine B assay; type: functional
Enterobacter cloacae = experiment: Antimicrobial activity against Enterobacter cloacae ATCC 13047 assessed clear zone in inhibition per disk by CLSI disk diffusion susceptibility assay; type: functional
[2] = system: Stenotrophomonas maltophilia; experiment: Antimicrobial activity against Stenotrophomonas maltophilia ATCC 13637 assessed clear zone in inhibition per disk by CLSI disk diffusion susceptibility assay; type: functional
Staphylococcus aureus = experiment: Antimicrobial activity against Staphylococcus aureus ATCC 29213 assessed clear zone in inhibition per disk by CLSI disk diffusion susceptibility assay; type: functional
SF-268 = experiment: Cytotoxicity against human SF268 cells after 48 hrs by sulforhodamine B assay; type: functional
Candida albicans = experiment: Antimicrobial activity against Candida albicans ATCC 90028 assessed clear zone in inhibition per disk by CLSI disk diffusion susceptibility assay; type: functional

SMILES | GI50 (SK-MEL-5) | MIC (Enterococcus faecalis) [µg] | GI50 (A498) | GI50 (BXPC-3; BXPC-3, 48 h) [µg/mL] | pIC50 [1] | GI50 (DU-145; DU-145, 48 h) [µg/mL] | GI50 (KM-20L2; KM-20L2, 48 h) [µg/mL] | MIC (Neisseria gonorrhoeae) [µg] | MIC (Escherichia coli) [µg] | MIC (Cryptococcus neoformans) [µg] | MIC (Micrococcus luteus) [µg] | MIC (Streptococcus pneumoniae) [µg] | EC50 (P388) [µg/mL] | GI50 (NCI-H460; NCI-H460, 48 h) [µg/mL] | MIC (Enterobacter cloacae) [µg] | MIC [2] [µg] | MIC (Staphylococcus aureus) [µg] | MIC (Candida albicans) [µg] | GI50 (OVCAR-3) | GI50 (SF-295) | further results
COc1cc(/C=C/[N+](=O)[O-])cc(O[Si](C)(C)C(C)(C)C)c1OC | inactive | 3.12 | inactive | > 10 | 4.92 | > 10 | > 10 | 3.12 | >100 | 25 | 1.56 | 3.12 | 32.6 (≈ 96 µM) | > 10 | >100 | >100 | 3.12 | >100 |  |  | GI50 (OVCAR-3; OVCAR-3, 48 h): > 10 µg/mL; GI50 (MCF7): inactive; GI50 (SF-295; SF-295, 48 h): > 10 µg/mL; GI50 (SF-268): inactive
COc1cc(/C=C/[N+](=O)[O-])c(OC)c(OC)c1OC | inactive | 3.12 | inactive |  | 5.27 |  |  | <0.78 | 12.5 | 0.78 | 1.56 | 6.25 | 1.3 (≈ 4.83 µM) |  | >100 | 25 | <0.78 | 0.78 | inactive | inactive | GI50 (BXPC-3): inactive; GI50 (DU-145): inactive; GI50 (KM-20L2): inactive; GI50 (MCF7): inactive; GI50 (NCI-H460): inactive; GI50 (SF-268): inactive
COc1ccc(/C=C/c2cc(OC)c(OC)c(OC)c2)cc1O [E-COMBRETASTATIN A-4] | inactive |  | inactive | 3.9 (≈ 12.3 µM) | 4.48 | 0.037 (≈ 0.117 µM) |  |  |  |  |  |  | 0.28 (≈ 0.885 µM) | 0.038 (≈ 0.12 µM) |  |  |  |  | inactive | inactive | GI50 (KM-20L2): inactive; GI50 (MCF7): inactive; GI50 (SF-268): inactive
COc1cc(OC)c(/C=C/[N+](=O)[O-])c(OC)c1 |  | >100 |  |  |  |  | 0.38 (≈ 1.59 µM) | >100 | >100 | >100 | >100 | >100 | 14 (≈ 58.5 µM) | 0.32 (≈ 1.34 µM) | >100 | >100 | >100 | >100 |  |  | GI50 (SK-MEL-5; SK-MEL-5, 48 h): 0.61 µg/mL (≈ 2.55 µM); GI50 (A498; A498, 48 h): 0.36 µg/mL (≈ 1.5 µM); GI50 (OVCAR-3; OVCAR-3, 48 h): 0.42 µg/mL (≈ 1.76 µM); GI50 (BXPC-3): inactive; GI50 (DU-145): inactive; GI50 (MCF7): inactive; GI50 (SF-295; SF-295, 48 h): 0.45 µg/mL (≈ 1.88 µM); GI50 (SF-268): inactive
COc1ccc(/C=C\c2cc(OC)c(OC)c(OC)c2)cc1O [COMBRETASTATIN A4] | inactive |  | inactive | 0.39 (≈ 1.23 µM) | 5.68 | 0.0008 (≈ 0.00253 µM) | 0.34 (≈ 1.07 µM) |  |  |  |  |  | 0.03 (≈ 0.0948 µM) | 0.0006 (≈ 0.0019 µM) |  |  |  |  | inactive | inactive | GI50 (MCF7): inactive
O=[N+]([O-])/C=C/c1ccc(OP(=O)([O-])[O-])cc1.[Na+].[Na+] | inactive | >100 | inactive | > 10 | < 4.40 | 57.8 | > 10 | >100 | >100 | >100 | >100 | >100 | 47.8 | > 10 | >100 | >100 | >100 | >100 | inactive | inactive | GI50 (MCF7; MCF7, 48 h): > 10 µg/mL; GI50 (SF-268; SF-268, 48 h): > 10 µg/mL
Oc1ccc(/C=C/c2cc(O)cc(O)c2)cc1 [RESVERATROL] | inactive |  | inactive |  | < 4.40 |  |  |  |  |  |  |  |  |  |  |  |  |  | inactive | inactive | 
COc1ccc(/C=C/[N+](=O)[O-])cc1OP(=O)(OCc1ccccc1)OCc1ccccc1 | inactive | 6.25 | inactive | > 10 | 5.00 | > 10 | > 10 | 0.78 | >100 | >100 | 3.12 | >100 | 2.2 (≈ 4.83 µM) | > 10 | >100 | >100 | 3.12 | >100 |  |  | GI50 (OVCAR-3; OVCAR-3, 48 h): > 10 µg/mL; GI50 (MCF7): inactive; GI50 (SF-295; SF-295, 48 h): > 10 µg/mL; GI50 (SF-268): inactive
O=[N+]([O-])/C=C/c1ccc(OP(=O)(OCc2ccccc2)OCc2ccccc2)cc1 | inactive | 6.25 | inactive | > 10 | 5.00 | > 10 | > 10 | 0.78 | >100 | 25 | 6.25 | >100 | 7 (≈ 16.5 µM) | > 10 | >100 | >100 | 3.12 | >100 | inactive | inactive | GI50 (MCF7; MCF7, 48 h): > 10 µg/mL; GI50 (SF-268; SF-268, 48 h): > 10 µg/mL
CCOc1ccc(/C=C/[N+](=O)[O-])cc1 | inactive | 50 | inactive | 1.2 (≈ 6.21 µM) | 5.26 | 2.2 (≈ 11.4 µM) | 2.4 (≈ 12.4 µM) | 0.78 | >100 | 1.56 | 50 | 12.5 | 3.8 (≈ 19.7 µM) | 1.9 (≈ 9.83 µM) | >100 | >100 | 25 | 3.12 | inactive | inactive | GI50 (MCF7; MCF7, 48 h): 1.1 µg/mL (≈ 5.69 µM); GI50 (SF-268; SF-268, 48 h): 1.8 µg/mL (≈ 9.32 µM)
Oc1ccc(/C=C\c2cc(O)cc(O)c2)cc1 [CIS-RESVERATROL] | inactive |  | inactive |  |  |  | 22 (≈ 96.4 µM) |  |  |  |  |  |  |  |  |  |  |  | inactive | inactive | GI50 (SF-268; SF-268, 48 h): 5 µg/mL (≈ 21.9 µM)
COc1ccc(/C=C/[N+](=O)[O-])cc1OP(=O)([O-])[O-].[Na+].[Na+] | inactive | >100 | inactive | > 10 | 4.74 | 4 | > 10 | 50 | >100 | >100 | >100 | >100 | 5.7 | 5.8 | >100 | >100 | >100 | >100 | inactive | inactive | GI50 (MCF7; MCF7, 48 h): 4.3 µg/mL; GI50 (SF-268; SF-268, 48 h): 4.2 µg/mL
CC(=O)Nc1ccc(/C=C/[N+](=O)[O-])cc1 |  | >100 |  |  | 4.96 |  | 1.1 (≈ 5.33 µM) | <6.25 | >100 | <6.25 | >100 | <6.25 | 6.2 (≈ 30.1 µM) | 0.7 (≈ 3.39 µM) | >100 | >100 | <6.25 | 6.25 |  |  | GI50 (SK-MEL-5; SK-MEL-5, 48 h): 0.34 µg/mL (≈ 1.65 µM); GI50 (A498; A498, 48 h): 0.96 µg/mL (≈ 4.66 µM); GI50 (OVCAR-3; OVCAR-3, 48 h): 0.65 µg/mL (≈ 3.15 µM); GI50 (BXPC-3): inactive; GI50 (DU-145): inactive; GI50 (MCF7): inactive; GI50 (SF-295; SF-295, 48 h): 1.4 µg/mL (≈ 6.79 µM); GI50 (SF-268): inactive
